Assay results as given in patent US12440567B2, “Aqueous antibody formulation stabilized by antioxidants for parenteral administration” (AMGEN INC., priority 2007, dated 2025).
Values belong to the compound of their own block, whether it stands above or below them.

What was measured:
[1] = PABA: doses as high as 12 grams per day; cited from earlier work
Antibody A (IgG1) = test: SEC-HPLC aggregation of Antibody A (IgG1) after UV-B exposure; type: physicochemical; conditions: Antibody A 1 mg/mL pH 5.00
Description: The SEC-HPLC conditions were as follows: a G3000 TOSOH SWXL column was used and the flowrate was set at 0.5 mL/min. […] For both IgG1 and IgG2, the mobile phase was 80 mM sodium phosphate, 300 mM sodium perchlorate, 10% isopropanol, pH 7.2, and each sample was run for 45 minutes.
For FIG. 5, the anti-streptavidin formulation was prepared having the following characteristics: 1 mg/mL anti-streptavidin mAb (IgG2), 10 mM sodium acetate, 5% sorbitol, and pH 5.00. For FIG. 6, the Antibody A formulation was prepared having the following characteristics: 1 mg/mL Antibody A (IgG1), 10 mM sodium acetate, 9% sucrose, and pH 5.20.

[2] = Color change of the antioxidant upon light; type: physicochemical
From the text: P-amino benzoic acid (PABA) has a relatively powerful antioxidant effect.

Antibody A [3] = conditions: 400 mM proline; 1% H2O2, 2 weeks
Description: Extreme conditions designed to greatly increase free radical generation include exposure to UVA and/or UVB light at 4° C. to 25° C. for 0.5 to 24 hours, or exposure to a 1% solution of hydrogen peroxide at 25° C. for 2 weeks, or exposure to 0.2 mM Fe-EDTA, 0.3% H2O2, and 1 mM ascorbate for 2 hours or longer at 37° C. Samples may alternatively be exposed to light providing an overall illumination of not less than 1.2 million lux hours and an integrated near UV energy of not less than 200 watt hours/square meter.

EPO = conditions: 10 mM additive, 0.06% H2O2, 24 hours, room temperature
Description: An exemplary protocol for Met-54 oxidation and peroxide assay is as follows. 0.6% hydrogen peroxide is added to 20 mM sodium phosphate solution containing 0.336 m/mL erythropoietin (EPO). Following 24 hours incubation at room temperature, 1 μg of the enzyme catalase is added to quench the excess hydrogen peroxide. 10 μL of 1M Tris solution pH 8.0 is added to 90 μL of EPO solution followed by addition of 2 μL of a 1 mg/mL trypsin solution. Samples are incubated overnight at room temperature. Peptides are separated using reverse phase HPLC (RP-HPLC). Peptides are identified by mass spectrometry (LC-MS). % Met-54 oxidation is calculated using peak areas determined by integration of UV chromatogram from RP-HPLC

[4] = system: Antibody B binding to protein A; test: Binding of Antibody B to protein A after UV-B exposure of the formulation; conditions: 20 mM additive; pH 6.90 phosphate buffer; 0-24 hours UV-B
Description: For the examples below involving exposure to UVB radiation, each sample was exposed to UVB light (λ≈302 nm) for varying times, using a UVP 8W model UVLMS-38 lamp at 4° C. The formulations were then analyzed using size exclusion chromatography high pressure liquid chromatography (SEC-HPLC). Aggregation (measured via SEC-HPLC analysis) and binding (measured using CM5 gold sensor chips) were measured to determine the effect of the antioxidant on aggregation and bioactivity of the therapeutic protein.
The binding activity of therapeutic protein to a ligand (e.g. to an antibody or binding partner, or, in cases where the therapeutic was an antibody, binding activity to the specific target antigen or to protein A) was determined as follows. […] The therapeutic protein-binding ligand of interest was injected until the desired immobilization level was achieved (above 5000 response units). Three different therapeutic protein-binding ligands were measured—Antibody A's target antigen, Protein A, and D11 (an antibody that binds to erythropoietin). […] The remaining activated groups were blocked with 1.0 M ethanolamine-HCl, pH 8.5.
A standard curve was prepared by using native forms of the therapeutic protein of interest. Native forms of the therapeutic protein were diluted in HBS-EP buffer (pH 7.4) to concentrations between 1 and 5 μg/mL, and then injected on the column, prepared as described above to obtain a standard curve. At the end of each sample run, regeneration buffer was used to wash away any bound therapeutic protein in preparation for subsequent injections.
Various UV-stressed antibody formulations were also diluted in HBS-EP buffer (pH 7.4) to a concentration within the standard curve region, and injected to quantitate the loss of bioactivity to its respective ligand-binding partner.

Antibody A [5] = test: Discoloration (yellowing) of Antibody A formulations after UV-B exposure; type: physicochemical; conditions: 10 mM additive alone; UV-B light 24 hours
From the text: Discoloration can be assessed visually or by measurement of absorbance at a specific wavelength.
Proteins may also become yellow in color following exposure to UV light.
Pyridoxine is another water soluble B-vitamin (B6) which was studied as a possible antioxidant for preventing protein aggregation caused by UV-B exposure.

Structure (SMILES): Nc1ccc(C(=O)O)cc1 [PABA, P-amino benzoic acid]
toxicity in humans [1]: without significant toxicity
aggregation of Antibody A (SEC-HPLC) (Antibody A (IgG1); 20 mM PABA, UV 1, 2, or 3 hours): able to significantly reduce the amount of aggregation
color change upon light [2]: changes to an orange-brown color upon light

prevention of Antibody A aggregation caused by peroxide (Antibody A [3]): stronger effect
protection of Antibody A from UV-B induced degradation (aggregation) (Antibody A (IgG1); 200 mM proline, UV 15 minutes): weak effect
Structure (SMILES): O=C(O)[C@@H]1CCCN1 [proline]

yellowing of Antibody A formulation (Antibody A [5]): significant yellowing
Structure (SMILES): CSCC[C@H](N)C(=O)O [methionine]
amount of Met-54 oxidation (EPO): able to reduce the amount of EPO oxidation
binding of Antibody B to protein A after UV-B exposure [4]: not able to prevent this UV-B induced degradation
